The numbers were not newly measured in PMC12285096, “Tirzepatide mitigates Stroke-Induced Blood-Brain barrier disruption by modulating Claudin-1 and C/EBP-α pathways” (Molecular Medicine, 2025), which cites them from elsewhere.

For this data set the following is noted: cited from earlier work; for BBB penetration (Kp, brain): limited BBB penetration of GLP-1 analogs, ref Rhea et al. [2024], Lee et al. [2023], Hunter and Hölscher [2012], Secher et al. [2014].

Turning to semaglutide, the “BBB penetration (Kp, brain)” value is recorded as 0.02–0.05.

For the substance liraglutide, the “BBB penetration (Kp, brain)” value is 0.02–0.05. The “Brain-to-plasma ratio (Kp, brain)” value (in vivo) is 0.03 ± 0.01.
